Measured values: patent publication EP4166560A1, “TRI-SUBSTITUTED TETRAHYDROFURANS AND USE THEREOF” (Consejo Superior de Investigaciones Cientificas, priority 2021, dated 2023)
“And” between values parts separate entries of the source, which are not always exact repeats. Equal entries are not always repeated. “Also recorded” adds a separate entry of the source. Numbered stars: 1 amine (or outer) side, 2 acyl side, 3 side chain; on linkers, the order of the positions; unused ones are H or OH. Bridge positions count the residues as written; N and C are the ends. Square brackets hold non-standard residues; d marks the D form. Peptide text beside a SMILES is read from it. * marks the point of attachment. X1 = CC[C@H](C)[C@@H](N[*:1])[C@@H](O)CC(=O)O[C@H](C(=O)[C@H](C)C(=O)[*:2])C(C)C; NMeY = CN[C@@H](Cc1ccc(O)cc1)C(=O)O; dNMeL = CN[C@H](CC(C)C)C(=O)O; Pyruvoyl = CC(=O)C(=O)*

Key:
SARS-CoV-2 [1] = conditions: White et al. 2021; result in words; cited from earlier work
TGEV [2] = experiment: Quantitation of TGEV-induced cell death in ST cells by real-time automated microscopy (Cytotox); format: cell-based, transmissible gastroenteritis virus (TGEV); conditions: for EC50: read-out: EC50 on TGEV-induced cell death; for activity against TGEV (reversion of TGEV-induced cell death): MOI 0.01, 48 h, result in words; for bottom plateau, dead cells: TGEV MOI 0.01, 48 h, dose-response fit
TGEV [3] = experiment: TGEV viral titration by plaque assay in ST cells; format: cell-based, transmissible gastroenteritis virus (TGEV)
Protocol: ST cells were inoculated with TGEV at a MOI of 0.01 infectious particles per cell and, after 24 h of incubation under standard culture conditions, the culture medium was subjected to the plaque assay, which determines the number of viral infectious particles present per volume unit (viral titer). A range of SPL-0 concentrations was tested in order to obtain a dose-response curve. The TGEV titer in the harvested medium decreased as the SPL-0 dose increased (Figure 6).

TGEV [4] = experiment: TGEV RNA quantitation by RT-qPCR in ST cells; format: cell-based, transmissible gastroenteritis virus (TGEV)
Protocol: ST cells were inoculated with TGEV at a MOI of 0.01 infectious particles per cell and, after 24 h of incubation under standard culture conditions, total RNA was extracted and TGEV RNA was quantified by RT-qPCR. A range of SPL-0 concentrations was tested in order to obtain a dose-response curve. The amount of TGEV RNA decreased as the SPL-0 dose increased (Figure 7).

MHV = MHV RNA quantitation by RT-qPCR in CCL9.1 cells; format: cell-based, murine hepatitis virus (MHV)
OC43 = OC43 RNA quantitation by RT-qPCR in BHK-21 cells; format: cell-based, human coronavirus OC43
SARS-CoV-2 [5] = experiment: SARS-CoV-2 infection quantified by immunofluorescence (flow cytometry) in VeroE6 cells; format: cell-based
Protocol: (§1) To determine the activity of SPL-0 against SARS-CoV-2, a dose-response assay was performed in the range of 0.2 µM to 50 µM using VeroE6 kidney cells from African green monkey (Cercopithecus aethiops). Cell cultures were inoculated with SARS-CoV-2 at an MOI of 0.01 infectious particles per cell and analyzed after 48 h. The percentage of infected cells was obtained by flow cytometry using a monoclonal antibody against the virus spike protein S as well as a fluorescently labelled secondary antibody (immunofluorescence). The percentage of infected cells decreased as the SPL-0 increased (Figure 8a). […] In addition, for each dose, cell viability assays were performed in the absence of virus. For this, the MTT assay, a standard procedure for determining cell metabolic activity, was used.

SARS-CoV-2 [6] = experiment: SARS-CoV-2 infection quantified by immunofluorescence (flow cytometry) in A549 cells; format: cell-based
Protocol: as §1, with “The” for “To determine the”, “SARS-CoV-2 was determined in A549 human lung cells, which provide a biologically relevant model, since that lungs are a primary target of SARS-CoV-2. For this,” for “SARS-CoV-2,”, “µM.” for “µM using VeroE6 kidney cells from African green monkey (Cercopithecus aethiops).”, “72” for “48”, “9a).” for “8a).”, “assay” for “assay, a standard procedure for determining cell metabolic activity,”

CVB3 = CVB3 viral titration by plaque assay in HeLa cells; format: cell-based, coxsackievirus B3 (CVB3)
Protocol: CVB3 belongs to the picornavirus family. […] Coronaviruses and picornaviruses share certain broad features. Both are plus-strand RNA viruses. However, they are otherwise largely unrelated virus groups. The effect of SPL-0 on CVB3 infection was determined in human HeLa cells. HeLa cells were inoculated with CVB3 at a MOI of 0.01 infectious particles per cell and, after 24 h of incubation under standard culture conditions, the medium was subjected to the plaque assay, which determines the number of viral infectious particles present per volume unit (viral titer). A range of SPL-0 concentrations was to obtain a dose-response curve. The CVB3 titer in the harvested medium decreased as the SPL-0 dose increased (Figure 10). […] Therefore, the antiviral action of SPL-0 extends beyond coronaviruses.

swine testis (ST) cells = conditions: dose range 2-100 µM
VeroE6 kidney cells = conditions: MTT, 0.2 µM to 50 µM
A549 human lung cells = conditions: MTT, 0.2 µM to 50 µM
in vitro [7] = conditions: pig, st cells
in vitro [8] = conditions: african green monkey, veroe6 cells
in vitro [9] = conditions: human, a549 cells
[10] = relative to untreated control, dose-response fit
[11] = Alphacoronavirus 1, ST cells, MOI 0.01, 48 h after viral inoculation

## CC[C@H](C)[C@H]1NC(=O)[C@@H](NC(=O)[C@@H](CC(C)C)N(C)C(=O)[C@@H]2CCCN2C(=O)C(C)=O)[C@@H](C)OC(=O)[C@H](Cc2ccc(OC)cc2)N(C)C(=O)[C@@H]2CCCN2C(=O)[C@H](CC(C)C)NC(=O)[C@@H](C)C(=O)[C@H](C(C)C)OC(=O)C[C@@H]1O [Aplidin, plitidepsin] (Pyruvoyl-P[dNMeL]T[X1]LP[NMeY](Me); ester 3-C)
SARS-CoV-2 [1]
  in vitro activity against SARS-CoV-2: potent in vitro activity

## C[C@@H]1O[C@@H](Cc2ccccc2)CC1[Si](c1ccccc1)(c1ccccc1)c1ccccc1 (some centres unmarked) [SPL-0]
TGEV [2]; Alphacoronavirus 1, 48 h
  EC50: 13.1 µM
TGEV [2]; ST cells
  activity against TGEV (reversion of TGEV-induced cell death): partially reverts TGEV-induced cell death; also recorded: Active
  bottom plateau, dead cells: 16.1%
TGEV [3]; Alphacoronavirus 1, viral titration (plaque assay), ST cells, MOI 0.01, 24 h, read-out: EC50 against TGEV
  EC50: 15.6 µM
TGEV [3]; [10]
  bottom plateau, estimated viral titer: 0%
TGEV [4]; Alphacoronavirus 1, RT-qPCR, ST cells, MOI 0.01, 24 h, read-out: EC50 against TGEV
  EC50: 4.35 µM
TGEV [4]; [10]
  bottom plateau, viral RNA: 0%
MHV; 20 µM, MOI 0.01, 24 h
  amount of MHV RNA, % of the amount obtained in control cultures receiving no drug: 17.0 ± 2.4%
MHV; Murine coronavirus, RT-qPCR, inferred from single dose 20 µM, read-out: EC50 against MHV
  EC50: < 20 µM
OC43; 20 µM, MOI 0.01, 4 days
  amount of OC43 RNA, % of the amount obtained in control cultures receiving no drug: 4.16 ± 0.95%
OC43; Betacoronavirus 1, OC43, RT-qPCR, inferred from single dose 20 µM, read-out: EC50 against OC43
  EC50: < 20 µM
SARS-CoV-2 [5]; Severe acute respiratory syndrome coronavirus 2, Vero C1008, immunofluorescence, MOI 0.01, 48 h, read-out: EC50 against SARS-CoV-2 in VeroE6 cells
  EC50: 27.5 µM
SARS-CoV-2 [5]; VeroE6 cells, dose-response fit
  bottom plateau, infected cells: 1.6%
SARS-CoV-2 [6]; A549 cells, dose-response fit
  estimated bottom plateau, infected cells: -0.37%
SARS-CoV-2 [6]; Severe acute respiratory syndrome coronavirus 2, A549, immunofluorescence, MOI 0.01, 72 h, read-out: EC50 against SARS-CoV-2 in A549 cells
  EC50: 12.9 µM
CVB3; Enterovirus B, CVB3, viral titration (plaque assay), HeLa cells, MOI 0.01, 24 h, read-out: EC50 against CVB3
  EC50: 2.95 µM
CVB3; [10]
  bottom plateau, estimated viral titer: 0%
Swine testis (ST) cells; ST cell cultures not inoculated with TGEV
  percentage of dead cells at 48 h: < 12% and 2.5-12.0%
Swine testis (ST) cells; ST cells, no virus, result in words
  cytotoxic effects: no detectable cytotoxic effects
VeroE6 kidney cells; uninfected VeroE6 cells
  percentage of viable cells at 48 h: > 85% and 85.0-93.3%
VeroE6 kidney cells; VeroE6 cells, result in words
  cytotoxic effects: no cytotoxic effects
A549 human lung cells; A549 cells, result in words
  cytotoxic effects: no cytotoxic effects
A549 human lung cells; uninfected A549 cells
  percentage of viable cells at 48 h: > 89% and 89.0-100%
In vitro [7]
  CC50 at 48 h: > 100 µM
In vitro [8]
  CC50 at 48 h: > 50 µM
In vitro [9]
  CC50 at 48 h: > 50 µM

## CCCCCCCCCC[C@H]1CC([Si](c2ccccc2)(c2ccccc2)c2ccccc2)[C@H](C)O1 (stereo partly drawn) [SPL-1, 2,5-trans-(5-decyl-2-methyltetrahydrofuran-3-yl)triphenylsilane]
TGEV [2]; ST cells
  activity against TGEV (reversion of TGEV-induced cell death): did not revert TGEV-induced cell death; also recorded: Inactive

## C[C@H]1OC[C@@H](c2ccccc2)[C@H]1[Si](c1ccccc1)(c1ccccc1)c1ccccc1 [SPL-4]
TGEV [2]; [11]
  EC50: 15.8 µM
TGEV [2]; ST cells
  activity against TGEV (reversion of TGEV-induced cell death): partially reverts TGEV-induced cell death; also recorded: Active
  bottom plateau, dead cells: 11.4%

## C[C@@H]1O[C@@H](Cc2ccccc2)CC1[Si](C)(C)C (some centres unmarked) [SPL-5]
TGEV [2]; ST cells
  activity against TGEV (reversion of TGEV-induced cell death): did not revert TGEV-induced cell death; also recorded: Inactive

## CC(C)C[C@H]1C[C@@H]([Si](c2ccccc2)(c2ccccc2)c2ccccc2)[C@H](CCCCl)O1 [SPL-6]
TGEV [2]; [11]
  EC50: 30.5 µM
TGEV [2]; ST cells
  activity against TGEV (reversion of TGEV-induced cell death): partially reverts TGEV-induced cell death; also recorded: Active
  bottom plateau, dead cells: 14.8%
